According to US9273046B2, “Fused tricyclic compounds as Raf kinase inhibitors” (BeiGene, LTD., priority 2011, dated 2016):
Where two headings read alike, the source gives them in different places.

Columns and labels:
B-Raf (V600E) = B-Raf (V600E) (Homo sapiens (Human), UniProt P15056, V600E); test: Raf IC50 assay, time-resolved fluorescence energy transfer (TR-FRET), B-Raf; format: biochemical
Procedure: The enzyme was incubated with the compounds at room temperature for 60 minutes and the reactions were initiated by the addition of ATP and GST-MEK1. […] Plates were sealed and incubated at room temperature for 2 hours, and then the TR-FRET signals were read on BMG PHERAstar FS instrument. The IC50 for each compound was calculated by non linear regression by Graphpad Prism software.

C-Raf (Y340D/Y341D) = C-Raf (Y340D/Y341D) (Homo sapiens (Human), UniProt P04049, Y340D/Y341D); test: Raf IC50 assay, time-resolved fluorescence energy transfer (TR-FRET), C-Raf; format: biochemical; conditions: 0.5 nM C-Raf, 0.1 mM ATP, GST-tagged MEK1 substrate, 60 min preincubation
C-Raf (Y340D/Y341D), sequence (P04049 whole entry Y340D/Y341D): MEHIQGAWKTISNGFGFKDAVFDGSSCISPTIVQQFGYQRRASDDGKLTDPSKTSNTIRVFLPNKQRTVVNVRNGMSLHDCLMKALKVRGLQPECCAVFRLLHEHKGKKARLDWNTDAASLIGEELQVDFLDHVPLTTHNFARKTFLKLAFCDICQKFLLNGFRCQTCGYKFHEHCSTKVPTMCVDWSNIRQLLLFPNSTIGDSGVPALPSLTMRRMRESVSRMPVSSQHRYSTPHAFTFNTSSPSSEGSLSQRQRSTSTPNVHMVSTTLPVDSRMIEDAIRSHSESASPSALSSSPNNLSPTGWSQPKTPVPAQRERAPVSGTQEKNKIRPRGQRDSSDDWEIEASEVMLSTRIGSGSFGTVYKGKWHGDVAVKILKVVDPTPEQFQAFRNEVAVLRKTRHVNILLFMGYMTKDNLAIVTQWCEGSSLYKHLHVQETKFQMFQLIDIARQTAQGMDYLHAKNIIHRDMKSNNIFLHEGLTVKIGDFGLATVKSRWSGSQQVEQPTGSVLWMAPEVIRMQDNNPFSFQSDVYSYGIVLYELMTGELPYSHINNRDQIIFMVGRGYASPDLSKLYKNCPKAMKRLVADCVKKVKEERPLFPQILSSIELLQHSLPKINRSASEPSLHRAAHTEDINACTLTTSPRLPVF
Procedure: The assay was carried out in reactions (10 μL) containing 0.0625 nM B-Raf or 0.5 nM C-Raf, 25 mM Tris pH7.4, 10 mM MgCl2, 0.5 mM EGTA, 0.5 mM […], 5 mM beta-glycerophosphate, 0.01% Triton X-100, 2.5 mM DTT, 0.1% BSA, 0.1 mM ATP, 13.7 nM GST-tagged MEK1 (Full-length protein with K97R mutation, recombinant protein purified from bacterial expression system) and 0-5 μM compounds disclosed herein (final concentration of 1% DMSO). The enzyme was incubated with the compounds at room temperature for 60 minutes and the reactions were initiated by the addition of ATP and GST-MEK1. After incubating at room temperature for 60 minutes, an equal volume of stop buffer containing 25 mM Tris pH7.4, 400 mM KF, 50 mM EDTA, 0.01% BSA, 0.01% Triton X-100, 1 test of Eu3+ Cryptate-conjugated rabbit polyclonal antibody anti-Phospho MEK1/2 (Ser217/221) and 1 test of d2-conjugated mouse monoclonal antibody anti-glutathione S-transferase was added to stop the reactions. Plates were sealed and incubated at room temperature for 2 hours, and then the TR-FRET signals were read on BMG PHERAstar FS instrument. The IC50 for each compound was calculated by non linear regression by Graphpad Prism software.

[1] = 0.0625 nM B-Raf, 0.1 mM ATP, GST-tagged MEK1 substrate, 60 min preincubation, read-out: B-Raf (V600E) IC50

B-Raf (V600E), sequence (P15056 whole entry V600E): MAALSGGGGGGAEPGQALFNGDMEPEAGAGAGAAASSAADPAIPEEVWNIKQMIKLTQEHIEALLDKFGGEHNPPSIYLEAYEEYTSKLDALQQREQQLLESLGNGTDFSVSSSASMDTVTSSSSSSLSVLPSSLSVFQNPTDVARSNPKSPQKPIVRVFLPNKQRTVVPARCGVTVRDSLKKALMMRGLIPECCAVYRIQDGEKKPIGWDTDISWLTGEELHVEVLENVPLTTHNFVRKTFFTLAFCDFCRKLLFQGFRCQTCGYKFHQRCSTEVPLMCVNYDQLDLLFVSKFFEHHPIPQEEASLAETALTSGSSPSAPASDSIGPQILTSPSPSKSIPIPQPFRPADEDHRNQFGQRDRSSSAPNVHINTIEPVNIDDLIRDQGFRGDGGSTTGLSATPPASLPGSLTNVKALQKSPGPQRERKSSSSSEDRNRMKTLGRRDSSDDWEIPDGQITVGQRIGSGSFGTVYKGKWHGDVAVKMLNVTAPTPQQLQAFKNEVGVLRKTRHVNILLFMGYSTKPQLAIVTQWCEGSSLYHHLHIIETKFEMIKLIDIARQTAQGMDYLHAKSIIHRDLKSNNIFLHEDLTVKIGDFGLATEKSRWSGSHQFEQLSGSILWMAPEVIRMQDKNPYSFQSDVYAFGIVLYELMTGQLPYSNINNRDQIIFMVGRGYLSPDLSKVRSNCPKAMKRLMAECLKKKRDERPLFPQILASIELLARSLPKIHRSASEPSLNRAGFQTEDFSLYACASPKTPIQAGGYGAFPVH

Compound	IC50 (B-Raf (V600E); [1])	IC50 (C-Raf (Y340D/Y341D))	IC50 (B-Raf (V600E))
O=C1CCc2c(Oc3ccc4c(c3)C3C(O4)C3c3nc(-c4ccccc4)c[nH]3)ccnc2N1 (racemic) [Compound 2.30, (±)-exo-5-((1-(4-phenyl-1H-imidazol-2-yl)-1a,6b-dihydro-1H-cyclopropa[b]benzofuran-5-yl)oxy)-3,4-dihydro-1,8-naphthyridin-2(1H)-one]	0.72 nM	< 0.25 nM	–
O=C1CCc2c(Oc3ccc4c(c3)[C@H]3[C@@H](O4)[C@@H]3c3nc4cc(Cl)c(C(F)(F)F)cc4[nH]3)ccnc2N1 [Compound 2.5b]	–	2.5 nM	–
Cn1c(C2C3Oc4ccc(Oc5ccnc6c5CCC(=O)N6)cc4C32)nc2ccccc21 (stereo not drawn) [Compound 2.15]	12 nM	3.6 nM	–
O=C1Nc2nccc(Oc3ccc4c(c3)C3C(O4)C3c3nc4ccc(C(F)(F)F)cc4[nH]3)c2CO1 (racemic) [Compound 3.7, (±)-exo-5-((1-(6-(trifluoromethyl)-1H-benzo[d]imidazol-2-yl)-1a,6b-dihydro-1H-cyclopropa[b]benzofuran-5-yl)oxy)-1H-pyrido[2,3-d][1,3]oxazin-2(4H)-one]	26 nM	3.2 nM	–
Cc1cc2[nH]c([C@@H]3[C@H]4Oc5ccc(Oc6ccnc7c6CCC(=O)N7)cc5[C@H]43)nc2cc1F [Compound 2.4a]	–	0.54 nM	–
O=C1CCc2c(Oc3ccc4c(c3)C3C(O4)C3c3nc(-c4ccccc4)no3)ccnc2N1 (racemic) [Compound 2.29, (±)-exo-5-((1-(3-phenyl-1,2,4-oxadiazol-5-yl)-1a,6b-dihydro-1H-cyclopropa[b]benzofuran-5-yl)oxy)-3,4-dihydro-1,8-naphthyridin-2(1H)-one]	3.2 nM	< 0.25 nM	–
FC(F)(F)c1ccc2nc(C3C4Oc5ccc(Oc6ccnc7[nH]ccc67)cc5C43)[nH]c2c1 (racemic) [Compound 3.3, (±)-exo-2-(5-((1H-pyrrolo[2,3-b]pyridin-4-yl)oxy)-1a,6b-dihydro-1H-cyclopropa[b]benzofuran-1-yl)-6-(trifluoromethyl)-1H-benzo[d]imidazole]	522 nM	104 nM	–
O=C1CCc2c(Oc3ccc4c(c3)C3C(O4)C3c3nc4ccncc4[nH]3)ccnc2N1 (stereo not drawn) [Compound 2.9]	42 nM	4.5 nM	–
N#Cc1ccc2nc(C3C4Oc5ccc(Oc6ccnc7c6CCC(=O)N7)cc5C43)[nH]c2c1 (stereo not drawn) [Compound 2.6]	22 nM	4.5 nM	–
O=C1CCc2c(Oc3ccc4c(c3)C3C(C4)C3c3nc4ccccc4[nH]3)ccnc2N1 (racemic) [Compound 1.1, (±)-exo-5-((1-(1H-benzo[d]imidazol-2-yl)-1,1a,6,6a-tetrahydrocyclopropa[a]inden-3-yl)oxy)-3,4-dihydro-1,8-naphthyridin-2(1H)-one]	11 nM	–	–
O=C1CCc2c(Oc3ccc4c(c3)C3C(O4)C3c3nc4cccc(C(F)(F)F)c4[nH]3)ccnc2N1 (stereo not drawn) [Compound 2.18]	89 nM	6.2 nM	–
COc1ccc2nc(C3C4Oc5ccc(Oc6ccnc7c6CCC(=O)N7)cc5C43)[nH]c2c1 (stereo not drawn) [Compound 2.16]	15 nM	3.8 nM	–
O=C1CCc2c(Oc3ccc4c(c3)[C@@H]3[C@H](O4)[C@H]3c3nc4ccc(C(F)(F)F)cc4[nH]3)ccnc2N1 [Compound 2.2b, 5-(((1R,1aS,6bR)-1-(6-(trifluoromethyl)-1H-benzo[d]imidazol-2-yl)-1a,6b-dihydro-1H-cyclopropa[b]benzofuran-5-yl)oxy)-3,4-dihydro-1,8-naphthyridin-2(1H)-one]	53 nM	8.8 nM	–
O=C1CCc2c(Oc3ccc4c(c3)C3C(O4)C3c3nc4cc5c(cc4[nH]3)CCC5)ccnc2N1 (stereo not drawn) [Compound 2.21]	1.2 nM	–	–
FC(F)(F)c1ccc2nc(C3C4Oc5ccc(Oc6ccncn6)cc5C43)[nH]c2c1 (racemic) [Compound 3.2, (±)-exo-2-(5-(pyrimidin-4-yloxy)-1a,6b-dihydro-1H-cyclopropa[b]benzofuran-1-yl)-6-(trifluoromethyl)-1H-benzo[d]imidazole]	–	223 nM	–
NC(=O)c1ccc2nc(C3C4Oc5ccc(Oc6ccnc7c6CCC(=O)N7)cc5C43)[nH]c2c1 (stereo not drawn) [Compound 2.22]	4 nM	1 nM	–
Cc1ccc2nc(C3C4Oc5ccc(Oc6ccnc7c6CCC(=O)N7)cc5C43)[nH]c2c1 (stereo not drawn) [Compound 2.8]	3.7 nM	0.71 nM	–

Compound	IC50 (B-Raf (V600E); [1])	IC50 (C-Raf (Y340D/Y341D))	IC50 (B-Raf (V600E))
O=C1CCc2c(Oc3ccc4c(c3)C3C(O4)C3c3nc4cc(C(F)(F)F)ccc4n3CCO)ccnc2N1 (racemic) [Compound 2.34, (±)-exo-5-((1-(1-(2-hydroxyethyl)-5-(trifluoromethyl)-1H-benzo[d]imidazol-2-yl)-1a,6b-dihydro-1H-cyclopropa[b]benzofuran-5-yl)oxy)-3,4-dihydro-1,8-naphthyridin-2(1H)-one]	30 nM	–	–
CNC(=O)c1cc(Oc2ccc3c(c2)C2C(O3)C2c2nc3ccc(C(F)(F)F)cc3[nH]2)ccn1 (racemic) [Compound 3.1, (±)-exo-N-methyl-4-((1-(6-(trifluoromethyl)-1H-benzo[d]imidazol-2-yl)-1a,6b-dihydro-1H-cyclopropa[b]benzofuran-5-yl)oxy)picolinamide]	–	6.5 nM	–
Cn1c(C2C3Oc4ccc(Oc5ccnc6c5CCC(=O)N6)cc4C32)nc2cc(C(F)(F)F)ccc21 (stereo not drawn) [Compound 2.24]	47 nM	4.3 nM	–
Cn1c(C2C3Oc4ccc(Oc5ccnc6c5CCC(=O)N6)cc4C32)nc2ccc(C(F)(F)F)cc21 (stereo not drawn) [Compound 2.23]	204 nM	35 nM	–
O=C1CCc2c(Oc3ccc4c(c3)C3C(O4)C3c3nc4ccc(OC(F)(F)F)cc4[nH]3)ccnc2N1 (stereo not drawn) [Compound 2.14]	28 nM	9.7 nM	–
FC(F)(F)c1ccc2nc(C3C4Oc5ccc(Oc6ccncc6)cc5C43)[nH]c2c1 (racemic) [Compound 3.6, (±)-exo-2-(5-(pyridin-4-yloxy)-1a,6b-dihydro-1H-cyclopropa[b]benzofuran-1-yl)-6-(trifluoromethyl)-1H-benzo[d]imidazole]	518 nM	86 nM	–
O=C1CCc2c(Oc3ccc4c(c3)C3C(O4)C3c3nc4cc(F)c(F)cc4[nH]3)ccnc2N1 (stereo not drawn) [Compound 2.11]	5.9 nM	3.3 nM	–
O=C1CCc2c(Oc3ccc4c(c3)C3C(O4)C3c3nc4ccccc4[nH]3)ccnc2N1 (racemic) [Compound 2.1, (±)-exo-5-((1-(1H-benzo[d]imidazol-2-yl)-1a,6b-dihydro-1H-cyclopropa[b]benzofuran-5-yl)oxy)-3,4-dihydro-1,8-naphthyridin-2(1H)-one]	3.1 nM	0.3 nM	–
O=C1CCc2c(Oc3ccc4c(c3)[C@@H]3[C@H](O4)[C@H]3c3nc4cc(Cl)c(C(F)(F)F)cc4[nH]3)ccnc2N1 [Compound 2.5a]	–	21 nM	–
O=C1CCc2c(Oc3ccc4c(c3)C3C(O4)C3c3nc4ccc(Br)cc4[nH]3)ccnc2N1 (stereo not drawn) [Compound 2.13]	7.2 nM	1.7 nM	–
O=C1CCc2c(Oc3ccc4c(c3)C3C(O4)C3c3nc4ccc(O)cc4[nH]3)ccnc2N1 (racemic) [Compound 2.27, (±)-exo-5-((1-(6-hydroxy-1H-benzo[d]imidazol-2-yl)-1a,6b-dihydro-1H-cyclopropa[b]benzofuran-5-yl)oxy)-3,4-dihydro-1,8-naphthyridin-2(1H)-one]	2.5 nM	< 0.25 nM	–
O=C1CCc2c(Oc3ccc4c(c3)C3C(O4)C3c3nc4c(Cl)cc(C(F)(F)F)cc4[nH]3)ccnc2N1 (stereo not drawn) [Compound 2.10]	80 nM	25 nM	–
O=C1CCc2c(Oc3ccc4c(c3)C3C(O4)C3c3nc(-c4ccccc4Cl)c[nH]3)ccnc2N1 (stereo not drawn) [Compound 2.32]	3.3 nM	0.9 nM	–
O=C1CCc2c(Oc3ccc4c(c3)C3C(C4)C3C(=O)O)ccnc2N1 (racemic) [Intermediate I, (±)-exo-3-((7-Oxo-5,6,7,8-tetrahydro-1,8-naphthyridin-4-yl)oxy)-1,1a,6,6a-tetrahydrocyclopropa[a]indene-1-carboxylic acid]	–	> 5000 nM	> 5000 nM
O=C1CCc2c(Oc3ccc4c(c3)[C@H]3[C@@H](O4)[C@@H]3c3nc4ccc(C(F)(F)F)cc4[nH]3)ccnc2N1 [Compound 2.2a]	6.7 nM	1.2 nM	–
O=C1CCc2c(Oc3cc4c(cc3Cl)OC3C(c5nc6ccc(C(F)(F)F)cc6[nH]5)C43)ccnc2N1 (racemic) [Compound 2.36, (±)-exo-5-((4-chloro-1-(6-(trifluoromethyl)-1H-benzo[d]imidazol-2-yl)-1a,6b-dihydro-1H-cyclopropa[b]benzofuran-5-yl)oxy)-3,4-dihydro-1,8-naphthyridin-2(1H)-one]	117 nM	32 nM	–
O=C1CCc2c(Oc3ccc4c(c3)C3C(C4)C3c3nc4ccccc4s3)ccnc2N1 (racemic) [Compound 1.3, (±)-exo-5-((1-(benzo[d]thiazol-2-yl)-1,1a,6,6a-tetrahydrocyclopropa[a]inden-3-yl)oxy)-3,4-dihydro-1,8-naphthyridin-2(1H)-one]	88 nM	5.5 nM	–
